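Following 48 hours of exposure in 96-well plates, responses at five concentrations were used to interpolate endpoints linearly. GI50: concentration for 50% inhibition of growth. The concentration for full growth arrest is given as TGI.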
What was measured:
Experiment in all cases: NCI tumour cell line growth inhibition, 48 h
MDA-MB-231 breast = tested on: MDA-MB-231 breast
SK-OV-3 ovarian = tested on: SK-OV-3 ovarian
SNB-75 CNS = tested on: SNB-75 CNS
CAKI-1 renal = tested on: CAKI-1 renal
LOX IMVI melanoma = tested on: LOX IMVI melanoma
HCT-116 colon = tested on: HCT-116 colon
NCI-H23 lung = tested on: NCI-H23 lung
KM12 colon = tested on: KM12 colon
A498 renal = tested on: A498 renal
MDA-MB-468 breast = tested on: MDA-MB-468 breast
MCF7 breast = tested on: MCF7 breast
SK-MEL-5 melanoma = tested on: SK-MEL-5 melanoma
IGROV1 ovarian = tested on: IGROV1 ovarian
SK-MEL-28 melanoma = tested on: SK-MEL-28 melanoma
T-47D breast = tested on: T-47D breast
HOP-62 NSCLC = tested on: HOP-62 NSCLC
786-0 renal = tested on: 786-0 renal
RPMI-8226 leukemia = tested on: RPMI-8226 leukemia
SNB-19 CNS = tested on: SNB-19 CNS
RXF 393 renal = tested on: RXF 393 renal
K-562 leukemia = tested on: K-562 leukemia
SF-268 CNS = tested on: SF-268 CNS
SF-539 CNS = tested on: SF-539 CNS
COLO 205 colon = tested on: COLO 205 colon
UACC-62 melanoma = tested on: UACC-62 melanoma
MALME-3M melanoma = tested on: MALME-3M melanoma
UACC-257 melanoma = tested on: UACC-257 melanoma
CCRF-CEM leukemia = tested on: CCRF-CEM leukemia
ACHN renal = tested on: ACHN renal

Cc1cccc(-c2nc(Nc3ccc(C)c(S(N)(=O)=O)c3)c3ccccc3n2)c1
GI50 (MDA-MB-231 breast): 4.04 µM
TGI (MDA-MB-231 breast): 17.5 µM
GI50 (SK-OV-3 ovarian): 17.6 µM
TGI (SK-OV-3 ovarian): 47.8 µM
GI50 (SNB-75 CNS): 13.1 µM
TGI (SNB-75 CNS): 52 µM
GI50 (CAKI-1 renal): 5.78 µM
TGI (CAKI-1 renal): 21.8 µM
GI50 (LOX IMVI melanoma): 3.31 µM
TGI (LOX IMVI melanoma): 12.5 µM
GI50 (HCT-116 colon): 5.84 µM
TGI (HCT-116 colon): 19.6 µM
GI50 (NCI-H23 lung): 13.3 µM
TGI (NCI-H23 lung): 33.5 µM
GI50 (KM12 colon): 3.32 µM
TGI (KM12 colon): > 100 µM
GI50 (A498 renal): 8.25 µM
TGI (A498 renal): 25.8 µM
GI50 (MDA-MB-468 breast): 4.07 µM
TGI (MDA-MB-468 breast): 16.5 µM
GI50 (MCF7 breast): 3.16 µM
TGI (MCF7 breast): 12.9 µM
GI50 (SK-MEL-5 melanoma): 11 µM
TGI (SK-MEL-5 melanoma): 24.7 µM
GI50 (IGROV1 ovarian): 10.3 µM
TGI (IGROV1 ovarian): 32.7 µM
GI50 (SK-MEL-28 melanoma): 11.4 µM
TGI (SK-MEL-28 melanoma): 28.8 µM
GI50 (T-47D breast): 3.61 µM
TGI (T-47D breast): 16.7 µM
GI50 (HOP-62 NSCLC): 11 µM
TGI (HOP-62 NSCLC): 26.6 µM
GI50 (786-0 renal): 5.68 µM
TGI (786-0 renal): 17.8 µM
GI50 (RPMI-8226 leukemia): 4.38 µM
TGI (RPMI-8226 leukemia): 35 µM
GI50 (SNB-19 CNS): 10.5 µM
TGI (SNB-19 CNS): 53 µM
GI50 (RXF 393 renal): 3.3 µM
TGI (RXF 393 renal): 11 µM
GI50 (K-562 leukemia): 3.47 µM
TGI (K-562 leukemia): 19 µM
GI50 (SF-268 CNS): 11.8 µM
TGI (SF-268 CNS): > 100 µM
GI50 (SF-539 CNS): 7.78 µM
TGI (SF-539 CNS): 27 µM
GI50 (COLO 205 colon): 7.07 µM
TGI (COLO 205 colon): 19.8 µM
GI50 (UACC-62 melanoma): 13.6 µM
TGI (UACC-62 melanoma): 30.2 µM
GI50 (MALME-3M melanoma): 13.9 µM
TGI (MALME-3M melanoma): 32.1 µM
GI50 (UACC-257 melanoma): 18.3 µM
TGI (UACC-257 melanoma): 51.4 µM
GI50 (CCRF-CEM leukemia): 4.11 µM
TGI (CCRF-CEM leukemia): 25.8 µM
GI50 (ACHN renal): 4.8 µM
TGI (ACHN renal): 21 µM
